{
  "source": "patent US20240050587A1",
  "about": "“LIPOSOMES COMPRISING ANTI-LOX ANTIBODY” (ISTITUTO SCIENTIFICO ROMAGNOLO PER LO STUDIO E LA CURA DEI …, priority 2019, published 2024)",
  "key": {"[1]": {"tested_on": "collagen scaffold cultured with MDA-MB-231", "assay": "Mechanical testing: stiffness of collagen scaffolds under unconfined uniaxial compression", "format": "cell-based, human", "conditions": "72 h of treatment; CTR 67.3 kPa", "text": "As previously described, an in-house built instrument prototype was developed by the inventors to apply a state of unconfined uniaxial compression to the collagen scaffolds. The applied stress (r, in kPa) could then be analyzed by dividing the applied force by the cross section of the sample. The applied force consisted of a pre-load of 1.41 kPa held constantly for 30 s; the full load of 5.97 kPa was then constantly applied for 30 s. The stiffness (compressive modulus, in kPa) of the collagen scaffold cultured with MDA-MB-231 and exposed for 72 h to all treatment groups was computed as the ratio between the increment of stress and increment of strain from the preload to the full load values. The samples were analyzed in air immediately after having been removed from the PBS where they were soaked. Five samples of each type were tested and each specimen was tested 10 times."}, "[2]": {"assay": "Safety: body weight change and H&E histology of hearts", "format": "in vivo, NU/NU nude mice", "protocol": "(§1) Tumor size and body weight were measured with caliper and a digital balance once a week. Tumor volume was calculated according to the formula (W×W×L)/2, where W and L represent the width and the length of tumor, respectively. Body weight change % was calculated were calculated by comparing weights at the start and end of therapy throught the formula throught the formula weight DO/weight D33%.\n(§2) Explanted mice organs (heart, liver, spleen, kidneys, lungs, tibia) and tumors were washed twice with PBS, embedded in a cryomold in O.C.T. (Tissue-Tek® O.C.T. Compound, Sakura® Finetek), and frozen at −80 degree. Ten μm-thick slides were obtained cutting tissues block with a cryostat at −20 degree. The slides were then stored at −20 degree until the analysis.\n(§3) Hematoxylin and eosin (H&E) staining was performed to evaluate the efficacy and safety of Lipo-EPI-LOX compared to the other treatment groups. Briefly the organs and tumor slides were thawed, hydrated and stained with H&E following the manufacturer's instructions. The stained slides were analyzed with an optical Zeiss Axioskop microscope (Carl Zeiss, Gottingen, Germany) equipped with a Polaroid camera."}, "[3]": {"tested_on": "MDA-MB-231 orthotopic xenograft", "assay": "In vivo drug testing: tumor growth in orthotopic xenograft (caliper and BLI)", "parameters": "species or system NU/NU nude mice", "conditions": "weekly i.v. 3.24 mg/Kg; caliper; mean ± spread", "protocol": "MDA-MB-231 labeled with luciferase probe (2×10^6 cells/100 μl matrigel) were orthotopically injected into the right mammary fad pad of female immunodeficient NU/NU nude mice [NU-Foxn1nu] 8-10 weeks old (Charles River Laboratories, Wilmington, MA, USA). NU/NU nude mice were housed five per cage at the HMRI animal facility, there were maintained under pathogen free conditions and on low-fluorescence diet according to the National Institutes of Health guidelines.\nas §1\nFurthermore, the impact on tumor growth was validated by performing bioluminescence imaging (BLI) of TNBC tumors at Day 0 and Day 33 (FIG. 4B, Figure S4 supportive information). This was performed in order to support the caliper measurements since the bioluminescent signal obtained from BLI is directly related to the viability of cells and could serve as metric to evaluate impact of therapy. The BLI quantification percentage was calculated throught the formula BLI DO/BLI D33%. […]"}, "[4]": {"conditions": "human, clinical data [28]; cited from earlier work"}, "[5]": {"tested_on": "MDA-MB-231 orthotopic xenograft", "assay": "Histological analysis (H&E) and collagen quantification of explanted tumors", "format": "in vivo, NU/NU nude mice", "conditions": "H&E sections of explanted tumors, 55 days post treatment; control 5%", "protocol": "as §2, §3\nTumors frozen 5-μm-thick slides were fixed for 5 min in formalin 10% solution, then washed and stained with Weigert's haematoxylin. Then the sections were stained with 0.1% (Direct Red 80) (Sigma Aldrich) picrosirius red in saturated aqueous solution of picric acid. The stained slides were analyzed with the NIS Elements software (Nikon Corporation, Tokyo, Japan)."}, "[6]": {"tested_on": "MDA-MB-231 orthotopic xenograft", "assay": "Survival study (Kaplan-Meier)", "format": "in vivo, NU/NU nude mice", "conditions": "55 days post treatment", "protocol": "Mice (n=10 per cohort) were sacrificed when the tumor volume reached 2000 mm^3 or when showing signs of morbidity. Data were analyzed using the Kaplan-Meier method. Comparisons among different treatment groups were performed using the log rank test for trend and considered significant with a p value less than 0.05."}},
  "note": "Where a name gives a salt, the structure may show the parent alone.",
  "data": [
    {"smiles": "COc1cccc2c1C(=O)c1c(O)c3c(c(O)c1C2=O)C[C@@](O)(C(=O)CO)C[C@@H]3O[C@H]1C[C@H](N)[C@@H](O)[C@H](C)O1", "note": "[Free EPI, epirubicin hydrochloride]", "values": [
      {"measurement": "average compressive modulus (scaffold stiffness)", "setting": "[1]", "result": 64.38, "unit": "kPa"},
      {"measurement": "inflammatory infiltrate in myocardial tissue (cardiotoxicity)", "setting": "[2]; H&E hearts", "result": "increment of cellularity due to the inflammatory infiltrate"},
      {"measurement": "increase in body weight", "setting": "[2]; end of study, D33 versus D0, CTR 3.3%", "result": 3.7, "unit": "%"},
      {"measurement": "tumor volume (tumor growth)", "setting": "[3]", "result": 1029, "unit": "mm^3"},
      {"measurement": "plasma peak concentration", "setting": "[4]", "result": 3.4, "unit": "µg/mL"},
      {"measurement": "necrotic tumor cells", "setting": "[5]", "result": 20, "unit": "%"},
      {"measurement": "survival", "setting": "[6]", "result": "less than 50%"}
    ]}
  ]
}
